# Reference: ChEMBL document CHEMBL1126190, “3-[4-[1-(6-Fluorobenzo[b]thiophen-3-yl)-4-piperazinyl]butyl]- 2,5,5-trimethyl-4-thiazolidinone: a new atypical antipsychotic agent for the treatment of schizophrenia” (J Med Chem, 1992)
# pKi: −log10 of the molar value.
# Key:
# [1] = molecular target: T1, 5-hydroxytryptamine receptor 1A (Rattus norvegicus, UniProt P19327); test: Compound was evaluated for in vitro binding affinity towards serotonin 5-hydroxytryptamine 1A receptor receptor in rat hippocampus using [3H]8-OH-DPAT as radioligand; assay type: tissue-based
# T1 sequence (P19327 whole entry): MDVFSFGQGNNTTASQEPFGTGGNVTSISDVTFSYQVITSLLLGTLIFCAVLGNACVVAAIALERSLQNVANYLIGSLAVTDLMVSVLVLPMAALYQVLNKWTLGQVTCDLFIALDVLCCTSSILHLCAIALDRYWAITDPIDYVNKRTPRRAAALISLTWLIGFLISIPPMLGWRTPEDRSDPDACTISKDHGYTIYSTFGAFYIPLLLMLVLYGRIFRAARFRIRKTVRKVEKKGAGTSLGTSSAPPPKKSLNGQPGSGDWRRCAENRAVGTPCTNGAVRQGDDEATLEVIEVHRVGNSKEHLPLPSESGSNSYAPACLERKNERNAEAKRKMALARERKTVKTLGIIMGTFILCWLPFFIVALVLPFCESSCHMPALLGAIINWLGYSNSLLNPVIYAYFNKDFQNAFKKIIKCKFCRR
# Rattus norvegicus [2] = test: Compound was evaluated for inhibition of apomorphine-induced stereotypy behavior in rats after intraperitoneal administration.; assay type: functional; details: ip
# Rattus norvegicus [3] = test: Compound was evaluated for intracranial self-stimulation in rat after intraperitoneal administration.; assay type: functional; details: ip
# Rattus norvegicus [4] = test: Compound was evaluated for pole-climb avoidance (escape failures) in rat after peroral administration.; assay type: functional; details: po
# Mus musculus [5] = test: Compound was evaluated for inhibition of apomorphine-induced climbing in mouse after intraperitoneal administration.; assay type: functional; details: ip
# Rattus norvegicus [6] = test: Compound was evaluated for pole-climb avoidance in rat after peroral administration.; assay type: functional; details: po
# Mus musculus [7] = test: Compound was evaluated for inhibition of apomorphine-induced climbing in mouse after peroral administration.; assay type: functional; details: po
# D(1A) dopamine receptor = D(1A) dopamine receptor (Rattus norvegicus, UniProt P18901); test: Compound was evaluated for in vitro binding affinity towards Dopamine receptor D1 in striatum using [3H]- SCH 23390 as radioligand; assay type: tissue-based
# D(1A) dopamine receptor, sequence (P18901 whole entry): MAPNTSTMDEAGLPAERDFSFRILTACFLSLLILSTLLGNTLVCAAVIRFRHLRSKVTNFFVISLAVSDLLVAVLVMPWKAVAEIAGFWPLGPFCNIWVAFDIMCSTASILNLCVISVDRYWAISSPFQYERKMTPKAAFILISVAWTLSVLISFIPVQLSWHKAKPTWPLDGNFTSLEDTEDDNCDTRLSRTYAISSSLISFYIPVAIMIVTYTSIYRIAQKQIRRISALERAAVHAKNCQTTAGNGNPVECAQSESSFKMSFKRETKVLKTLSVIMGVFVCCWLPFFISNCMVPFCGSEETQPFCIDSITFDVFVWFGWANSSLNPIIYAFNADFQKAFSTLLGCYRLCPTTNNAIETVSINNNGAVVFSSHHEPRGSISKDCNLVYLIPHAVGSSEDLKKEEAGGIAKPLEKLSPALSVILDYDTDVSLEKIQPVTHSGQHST
# [8] = molecular target: Serotonin 2 (5-HT2) receptor (Rattus norvegicus, UniProt P30994+P08909+P14842); test: Compound was evaluated for in vitro binding affinity towards serotonin 5-hydroxytryptamine 2 receptor in rat cortex using [3H]- spiperone as radioligand
compound,measurement,setting,value
CC1SC(C)(C)C(=O)N1CCCCN1CCN(c2csc3cc(F)ccc23)CC1 (stereo unspecified),pKi,[1],7.40
same,ED50,Rattus norvegicus [2],61.4 mg/kg
same,ED50,Rattus norvegicus [3],4.7 mg/kg
same,ED50,Rattus norvegicus [4],> 20 mg/kg
same,ED50,Mus musculus [5],2.5 mg/kg
same,ED50,Rattus norvegicus [6],5.46 mg/kg
same,ED50,Mus musculus [7],15.4 mg/kg
same,pKi,D(1A) dopamine receptor,5.56
same,Ki,[8],20 nM
O=C(CCCN1CCC(O)(c2ccc(Cl)cc2)CC1)c1ccc(F)cc1 [HALOPERIDOL],ED50,Rattus norvegicus [2],0.576 mg/kg
same,ED50,Rattus norvegicus [3],0.077 mg/kg
same,ED50,Rattus norvegicus [4],14.1 mg/kg
same,ED50,Rattus norvegicus [6],1.1 mg/kg
CN1CCN(C2=Nc3cc(Cl)ccc3Nc3ccccc32)CC1 [CLOZAPINE],ED50,Rattus norvegicus [2],> 40 mg/kg
same,ED50,Rattus norvegicus [4],33.1 mg/kg
same,ED50,Rattus norvegicus [6],12.7 mg/kg
